Assay results: patent publication US10689354B2, “Aminoazole derivative” (Teijin Pharma Limited, priority 2015, dated 2020)

Legend:
[1] = target: T1, androgen receptor (AR-LBD) (Rattus norvegicus, UniProt P15207); experiment: Evaluation of androgen receptor affinity (PolarScreen Androgen Receptor Competitor Assay Kit, Red; fluorescence polarization); conditions: 22° C. for 5 hours, relative to binding rate of 1 μM DHT, read-out: AR affinity (pEC50) (converted)
T1 construct: 5 μL of 2×AR-LBD/Fluoromone AL Red Complex contained in the kit; purchased Invitrogen
T1 sequence (P15207 651-882 limits assumed): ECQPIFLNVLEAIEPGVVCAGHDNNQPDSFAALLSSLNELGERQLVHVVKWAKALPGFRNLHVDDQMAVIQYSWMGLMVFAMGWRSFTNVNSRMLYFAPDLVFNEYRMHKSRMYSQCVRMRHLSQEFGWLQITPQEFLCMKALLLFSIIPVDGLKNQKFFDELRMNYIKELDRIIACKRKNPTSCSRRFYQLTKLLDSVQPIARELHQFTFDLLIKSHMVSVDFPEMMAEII
Procedure, shortened: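 Duplicate wells of test compound were mixed with the kit's rat AR-LBD–Fluoromone AL Red tracer complex and left 5 hours at 22 °C before polarization was read. A 4-parameter fit gave pEC50, with binding rate referenced to 1 μM dihydrotestosterone.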

[2] = target: T2, human androgen receptor (Homo sapiens, UniProt P10275); experiment: Reporter assay of an androgen receptor responsive sequence (luciferase, transiently transfected HEK293 cells); type: cell-based; conditions: 24 hours incubation, relative to activity of 100 nM DHT, read-out: AR transcriptive activity (pEC50) (converted)
T2 construct: expressed in transfected cells; host or cells: HEK293
T2 sequence (P10275 1-920): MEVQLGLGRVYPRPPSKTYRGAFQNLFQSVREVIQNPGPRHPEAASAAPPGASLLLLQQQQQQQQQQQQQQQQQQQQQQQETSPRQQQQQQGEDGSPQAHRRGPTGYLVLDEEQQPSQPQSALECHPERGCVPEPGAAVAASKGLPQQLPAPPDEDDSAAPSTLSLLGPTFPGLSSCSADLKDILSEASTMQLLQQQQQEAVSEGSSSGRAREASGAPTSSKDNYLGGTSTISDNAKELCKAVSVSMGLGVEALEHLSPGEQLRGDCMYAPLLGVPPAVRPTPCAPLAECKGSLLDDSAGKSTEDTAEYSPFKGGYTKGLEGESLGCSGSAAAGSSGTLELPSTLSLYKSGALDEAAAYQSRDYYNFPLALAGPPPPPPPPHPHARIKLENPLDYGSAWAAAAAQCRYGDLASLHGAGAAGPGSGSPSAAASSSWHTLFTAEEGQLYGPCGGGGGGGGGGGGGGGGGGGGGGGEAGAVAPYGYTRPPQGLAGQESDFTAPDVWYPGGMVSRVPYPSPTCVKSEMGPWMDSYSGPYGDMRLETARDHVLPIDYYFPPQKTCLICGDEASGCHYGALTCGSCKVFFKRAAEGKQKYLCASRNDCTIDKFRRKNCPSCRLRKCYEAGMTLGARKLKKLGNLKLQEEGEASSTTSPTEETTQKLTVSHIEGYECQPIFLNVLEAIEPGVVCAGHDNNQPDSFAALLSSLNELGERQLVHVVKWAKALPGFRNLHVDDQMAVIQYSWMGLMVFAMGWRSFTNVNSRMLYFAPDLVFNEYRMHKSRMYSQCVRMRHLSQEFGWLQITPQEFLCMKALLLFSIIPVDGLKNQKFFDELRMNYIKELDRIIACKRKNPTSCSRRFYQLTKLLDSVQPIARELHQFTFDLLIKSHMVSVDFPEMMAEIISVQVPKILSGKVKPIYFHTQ
Procedure, shortened: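 Agonism scored as pEC50, fitted by 4-parameter curve against the response to 100 nM DHT, from dual-luciferase readout after 24 h compound treatment. Cells were HEK293 co-transfected (3 h) with human AR expression vector, androgen-responsive firefly reporter and Renilla control, in charcoal-stripped serum.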

Compound | EC50 [1] [nM] | EC50 [2] [nM]
Cc1sc(N(Cc2ccc3ncccc3c2)c2ccc(C#N)cc2)nc1C(=O)NS(C)(=O)=O [Compound 403, 2-[4-cyano-N-(6-quinolylmethyl)anilino]-5-methyl-N-methylsulfonyl-thiazole-4-carboxamide] | 251 | 251
CS(=O)(=O)NC(=O)c1nc(N(Cc2ccc(Cl)cc2)c2ccc(C#N)cc2)oc1C1CC1 [Compound 646, 2-[N-[(4-chlorophenyl)methyl]-4-cyano-anilino]-5-cyclopropyl-N-methylsulfonyl-oxazole-4-carboxamide] | 39.8 | > 10000
COCCCS(=O)(=O)NC(=O)c1nc(N(Cc2ccc(OC(F)(F)F)cc2)c2ccc(C#N)cc2)sc1C [Compound 157, 2-[4-cyano-N-[[4-(trifluoromethoxy)phenyl]methyl]anilino]-N-(3-methoxypropylsulfonyl)-5-methyl-thiazole-4-carboxamide] | 31.6 | 200
CS(=O)(=O)NC(=O)c1nc(N(Cc2ccc(Cl)cn2)c2ccc(C(F)(F)F)nc2)sc1Br [Compound 644, 5-bromo-2-[(5-chloro-2-pyridyl)methyl-[6-(trifluoromethyl)-3-pyridyl]amino]-N-methylsulfonyl-thiazole-4-carboxamide] | 200 | 501
Cc1sc(N(Cc2ccc(C(F)(F)F)cc2)c2ccc(C#N)cc2)nc1C(=O)NS(C)(=O)=O [Compound 46, 2-[4-cyano-N-[[4-(trifluoromethyl)phenyl]methyl]anilino]-5-methyl-N-methylsulfonyl-thiazole-4-carboxamide] | 31.6 | 31.6
Cc1sc(N(Cc2cccc(C#N)c2)c2ccc(C#N)cc2)nc1C(=O)NS(C)(=O)=O [Compound 9, 2-[4-cyano-N-[(3-cyanophenyl)methyl]anilino]-5-methyl-N-methylsulfonyl-thiazole-4-carboxamide] | 100 | 398
Cc1sc(N(CCC2CCCCO2)c2ccc(C#N)cc2)nc1C(=O)NS(C)(=O)=O (stereo not drawn) [Compound 443, 2-[4-cyano-N-(2-tetrahydropyran-2-ylethyl)anilino]-5-methyl-N-methylsulfonyl-thiazole-4-carboxamide] | 200 | 501
Cc1sc(N(Cc2ccccc2)c2ccc(Cl)cc2)nc1C(=O)NS(C)(=O)=O [Compound 31, 2-(N-benzyl-4-chloro-anilino)-5-methyl-N-methylsulfonyl-thiazole-4-carboxamide] | 100 | 2510
Cc1oc(N(CCc2ccc(Cl)cc2)Cc2ccccc2OC(F)F)nc1C(=O)NS(C)(=O)=O [Compound 543, 2-[2-(4-chlorophenyl)ethyl-[[2-(difluoromethoxy)phenyl]methyl]amino]-5-methyl-N-methylsulfonyl-oxazole-4-carboxamide] | 50.1 | 1260
Cc1sc(N(Cc2ccc(Br)nc2)c2ccc(C#N)cc2)nc1C(=O)NS(C)(=O)=O [Compound 496, 2-[N-[(6-bromo-3-pyridyl)methyl]-4-cyano-anilino]-5-methyl-N-methylsulfonyl-thiazole-4-carboxamide] | 126 | 158
Cc1sc(N(Cc2ccc(-c3ccccc3F)cn2)c2ccc(C#N)cc2)nc1C(=O)NS(C)(=O)=O [Compound 594, 2-[4-cyano-N-[[5-(2-fluorophenyl)-2-pyridyl]methyl]anilino]-5-methyl-N-methylsulfonyl-thiazole-4-carboxamide] | 79.4 | 1580
Cc1sc(N(Cc2ccccc2)c2ccc(C#N)cc2)nc1C(=O)NS(=O)(=O)C1CC1 [Compound 363, 2-(N-benzyl-4-cyano-anilino)-N-cyclopropylsulfonyl-5-methyl-thiazole-4-carboxamide] | 63.1 | 1260
Cc1sc(N(Cc2ccc3ccccc3c2)c2ccc(C#N)cc2)nc1C(=O)NS(C)(=O)=O [Compound 25, 2-[4-cyano-N-(2-naphthylmethyl)anilino]-5-methyl-N-methylsulfonyl-thiazole-4-carboxamide] | 25.1 | 50.1
Cc1sc(N(Cc2ccc(C(F)F)c(F)c2)c2ccc(C#N)cc2)nc1C(=O)NS(C)(=O)=O [Compound 155, 2-[4-cyano-N-[[4-(difluoromethyl)-3-fluoro-phenyl]methyl]anilino]-5-methyl-N-methylsulfonyl-thiazole-4-carboxamide] | 31.6 | 15.8
Cc1sc(N(CCc2ccc(C#N)cc2)Cc2ccc(Cl)cc2)nc1C(=O)NS(C)(=O)=O [Example 306, 2-[(4-chlorophenyl)methyl-[2-(4-cyanophenyl)ethyl]amino]-5-methyl-N-methylsulfonyl-thiazole-4-carboxamide] | 31.6 | 100
COCCCS(=O)(=O)NC(=O)c1nc(N(Cc2ccc(F)cc2Cl)c2ccc(C#N)cc2)sc1C [Example 192, 2-[N-[(2-chloro-4-fluoro-phenyl)methyl]-4-cyano-anilino]-N-(3-methoxypropylsulfonyl)-5-methyl-thiazole-4-carboxamide] | 63.1 | 1260
COCCCS(=O)(=O)NC(=O)c1nc(N(Cc2ccc(Br)cn2)c2ccc(C#N)cc2)sc1C [Example 188, 2-[N-[(5-bromo-2-pyridyl)methyl]-4-cyano-anilino]-N-(3-methoxypropylsulfonyl)-5-methyl-thiazole-4-carboxamide] | 316 | 200
COCCCS(=O)(=O)NC(=O)c1nc(N(Cc2ccc(OC(F)F)cc2)c2ccc(C#N)cc2)sc1C1CC1 [Compound 666, 2-[4-cyano-N-[[4-(difluoromethoxy)phenyl]methyl]anilino]-5-cyclopropyl-N-(3-methoxypropylsulfonyl)thiazole-4-carboxamide] | 39.8 | > 10000
CCC(C)CN(c1ccc(C#N)cc1)c1nc(C(=O)NS(C)(=O)=O)c(C)s1 (stereo not drawn) [Compound 89, 2-[4-cyano-N-(2-methylbutyl)anilino]-5-methyl-N-methylsulfonyl-thiazole-4-carboxamide] | 501 | > 10000
Cc1sc(N(CCc2ccc(Cl)cc2)Cc2nc(C3CC3)no2)nc1C(=O)NS(C)(=O)=O [Compound 161, 2-[2-(4-chlorophenyl)ethyl-[(3-cyclopropyl-1,2,4-oxadiazol-5-yl)methyl]amino]-5-methyl-N-methylsulfonyl-thiazole-4-carboxamide] | 126 | 501
CCc1oc(N(Cc2ccc(Cl)c(F)c2)c2ccc(C#N)cc2)nc1C(=O)NS(C)(=O)=O [Compound 651, 2-[N-[(4-chloro-3-fluoro-phenyl)methyl]-4-cyano-anilino]-5-ethyl-N-methylsulfonyl-oxazole-4-carboxamide] | 39.8 | 200
Cc1sc(N(CCC2CCCC(O)C2)c2ccc(C#N)cc2)nc1C(=O)NS(C)(=O)=O (stereo not drawn) [Compound 442, 2-[4-cyano-N-[2-(3-hydroxycyclohexyl)ethyl]anilino]-5-methyl-N-methylsulfonyl-thiazole-4-carboxamide] | 316 | 1260
Cc1oc(N(CCc2ccc(Cl)cc2)CC[C@@H]2CCCC[C@H]2O)nc1C(=O)NS(C)(=O)=O (racemic) [Compound 547, 2-[2-(4-chlorophenyl)ethyl-[2-[trans-2-hydroxycyclohexyl]ethyl]amino]-5-methyl-N-methylsulfonyl-oxazole-4-carboxamide] | 316 | 2510
Cc1sc(N(Cc2cc(F)c(F)cc2F)c2ccc(C#N)cc2)nc1C(=O)NS(C)(=O)=O [Compound 110, 2-[4-cyano-N-[(2,4,5-trifluorophenyl)methyl]anilino]-5-methyl-N-methylsulfonyl-thiazole-4-carboxamide] | 63.1 | 126
